Reference: patent US7271005B2, “Modulation of bacterial membrane permeability” (priority 2002, dated 2007)

T1: PprA / PprB (Pseudomonas aeruginosa, UniProt Q9HWA7)
T1 construct: coding regions of the two open reading frames were amplified by PCR; His-tag; made in house; host or cells: E. coli strain M15 (pREP4) with pYW021 (pQE32-pprA) or pYW024 (pQE31-pprB)
T1 sequence (Q9HWA7 1-922): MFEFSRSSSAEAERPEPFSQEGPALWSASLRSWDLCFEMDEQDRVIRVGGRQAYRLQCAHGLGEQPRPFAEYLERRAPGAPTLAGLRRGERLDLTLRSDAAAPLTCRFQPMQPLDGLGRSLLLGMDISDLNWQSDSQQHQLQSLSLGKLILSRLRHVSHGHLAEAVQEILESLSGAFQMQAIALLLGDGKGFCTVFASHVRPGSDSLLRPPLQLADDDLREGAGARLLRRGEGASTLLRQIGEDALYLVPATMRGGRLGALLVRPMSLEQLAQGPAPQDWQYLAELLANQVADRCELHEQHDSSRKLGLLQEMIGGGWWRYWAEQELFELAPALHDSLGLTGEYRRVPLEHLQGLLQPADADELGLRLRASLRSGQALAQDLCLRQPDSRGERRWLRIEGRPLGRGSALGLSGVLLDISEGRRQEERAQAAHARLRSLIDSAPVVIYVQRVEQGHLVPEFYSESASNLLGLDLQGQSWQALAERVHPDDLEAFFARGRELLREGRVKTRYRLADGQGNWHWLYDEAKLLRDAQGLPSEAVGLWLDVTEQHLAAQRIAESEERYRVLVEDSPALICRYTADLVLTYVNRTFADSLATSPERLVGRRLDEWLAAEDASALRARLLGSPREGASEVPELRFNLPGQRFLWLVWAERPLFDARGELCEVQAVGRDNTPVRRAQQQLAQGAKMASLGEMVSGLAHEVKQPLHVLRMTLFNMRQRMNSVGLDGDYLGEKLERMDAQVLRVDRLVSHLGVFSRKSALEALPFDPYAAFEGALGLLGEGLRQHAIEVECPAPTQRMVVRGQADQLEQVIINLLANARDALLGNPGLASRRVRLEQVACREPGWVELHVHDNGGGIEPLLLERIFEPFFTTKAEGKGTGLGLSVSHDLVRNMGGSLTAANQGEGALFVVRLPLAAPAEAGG


Experiments:
P. aeruginosa PAK1-3 = test: Antibiotic resistance of spontaneous neomycin-resistant mutant PAK1-3 compared with parent PAK; type: cell-based, Pseudomonas aeruginosa; details: mutant PAK1-3 versus parent strain PAK
Experimental: A mutant P. aeruginosa (PAK) strain was used to identify the pprA membrane permeability-associated gene. Spontaneous neomycin resistant mutants of PAK were selected by culturing on L-agar medium containing 200 μg/ml neomycin.

[1] = tested on: clinical isolates of P. aeruginosa; test: Antibiotic sensitivity of CF and non-CF blood clinical isolates; type: cell-based, Pseudomonas aeruginosa; details: 18 CF and 18 non-CF blood isolates; tetracycline 100 μg/ml
Experimental: Overexpression of the pprB gene in clinical isolates increases sensitivity to aminoglycosides. The pprB overexpresser construct was introduced into aminoglycoside-resistant clinical isolates of P. aeruginosa. 18 cystic fibrosis (CF) isolates and 18 non-CF blood isolates showing varying degrees of resistance to all aminoglycosides were randomly chosen for analysis. Since most of the strains were also resistant to carbenicillin, but sensitive to tetracycline (100 μg/ml), a tetracycline-resistant construct, pRRBTc, that expresses the pprB gene under lac promoter was used.

PAK1-3 cells = test: Complementation of PAK1-3: aminoglycoside sensitivity after introduction of plasmids; type: cell-based, Pseudomonas aeruginosa; details: PprB overexpression compared with PprA overexpression
Excerpt: A gene associated with membrane permeability, termed pprA, was identified by complementation assay in PAK1-3 cells. On the assumption that the PAK1-3 strain is an impermeable mutant due to loss of a gene function, an effort was made to complement the mutant with wild type PAK chromosomal DNA clones. A clone bank of 3-5 kb PAK chromosomal DNA was constructed in pUCP18, a broad host range plasmid with a lac promoter and β-lactamase. Plasmids with DNA inserts were gel purified from the clone bank and electroporated into PAK1-3.
Transformants were first selected on L-agar containing carbenicillin (150 μg/ml) and then replica plated on L-agar containing carbenicillin (150 μg/ml) plus neomycin (200 μg/ml) to screen for isolates that are sensitive to aminoglycosides. […] Plasmids were purified from the three isolates and re-transformed into fresh PAK1-3 cells. […] This plasmid was designated pUCP18B.
The pprB gene was amplified from the PAK chromosome by PCR and cloned into pUCP19, inserted in the same or opposite direction relative to the lac promoter on the vector. The resulting constructs were designated pZLRR-α and pZLRR-β, respectively. See, Wang et al., 2003, Antimicrobial Agents and Chemotherapy 47:95-101. The PCR product was cloned into pCR2.1-TOPO, resulting pCR-RR in which the pprB gene is in the opposite direction relative to the lac promoter. […]

PprA / PprB [2] = biological target: T1, PprA / PprB; test: In vitro phosphorylation assay with [γ-32P] ATP; type: biochemical; details: 5 min at room temperature, SDS-PAGE, X-ray film
Excerpt: (§1) PprA or PprB were purified and expressed at high levels in E. coli. To produce PprA or PprB in E.coli, coding regions of the two open reading frames were amplified by PCR as described in Wang et al., supra. The PCR products were first cloned into pCR2.1-TOPO, designated pYW017 and pYW020, respectively. Subsequently, a 2.8 kb pprA fragment from pYW017 and an 862 bp pprB fragment from pYW020 were isolated and subcloned into the BamHI and HindIII sites of pQE32 and pQE31, resulting in pYW021 and pYW024, respectively.
(§2) To purify the His-tagged PprA or PprB, E.coli strain M15 harboring pREP4 and pYW021 or pYW024 were induced with 1 mM IPTG for six hours at 28° C. His-tagged PprA and PprB were affinity purified using Ni-agarose column from the soluble fraction of the cell extracts according to the protocol provided by Qiagen, Inc. The purified proteins were dialyzed against storage buffer (50 mM TrisCl pH8.0, 50 mM KCl, 5 mM MgCl2, 1 mM DTT and 50% glycerol) for overnight and stored at−20° C. until use.
(§3) PprA and PprB function in a two-component regulatory system. Like other two-component regulatory genes, both PprA and PprB contain conserved phosphorylation sites (histidine and aspartate, respectively). An in vitro phosphorylation assay was performed to investigate the relationship between the PprA and PprB. PprA and PprB were purified as described in Example 4. […]

PprA / PprB [3] = test: In vitro phosphorylation assay with [γ-32P] ATP; type: biochemical, Pseudomonas aeruginosa; details: 5 min at room temperature, SDS-PAGE, X-ray film
Excerpt: as §1, §2, §3

Molecule	change of resistance/sensitivity of PAK1-3 to the antibiotic (P. aeruginosa PAK1-3)	also measured
CC[C@H]1OC(=O)[C@H](C)[C@@H](O[C@H]2C[C@@](C)(OC)[C@@H](O)[C@H](C)O2)[C@H](C)[C@@H](O[C@@H]2O[C@H](C)C[C@H](N(C)C)[C@H]2O)[C@](C)(O)C[C@@H](C)C(=O)[C@H](C)[C@@H](O)[C@]1(C)O [erythromycin]	increased resistance	
O=C(O)c1cn(C2CC2)c2cc(N3CCNCC3)c(F)cc2c1=O [ciprofloxacin]	increased resistance	
gentamicin	increased resistance	
NCC[C@H](O)C(=O)N[C@@H]1C[C@H](N)[C@@H](O[C@H]2O[C@H](CN)[C@@H](O)[C@H](O)[C@H]2O)[C@H](O)[C@H]1O[C@H]1O[C@H](CO)[C@@H](O)[C@H](N)[C@H]1O [amikacine]	increased resistance	
CC1(C)S[C@@H]2[C@H](NC(=O)C(C(=O)O)c3ccccc3)C(=O)N2[C@H]1C(=O)O (some centres unmarked) [carbenicillin]	not significantly changed	sensitivity of most of the clinical isolates [1]: resistant
[H]/N=C(/N)N[C@H]1[C@H](O)[C@@H](O)[C@H](O[C@@H]2O[C@@H](C)[C@](O)(C=O)[C@H]2O[C@@H]2O[C@@H](CO)[C@H](O)[C@@H](O)[C@@H]2NC)[C@@H](N/C(N)=N\[H])[C@@H]1O [streptomycin]	increased resistance	
NC[C@H]1O[C@H](O[C@H]2[C@H](O)[C@@H](O[C@H]3O[C@H](CO)[C@@H](O)[C@H](N)[C@H]3O)[C@H](N)C[C@@H]2N)[C@H](N)C[C@@H]1O [tobamycin]	increased resistance	
PprB: putative response regulator (PA4296) encoded by pprB, SEQ ID NO:4; His-tagged, purified from E. coli (protein, listed as Pseudomonas aeruginosa, His tag, His-tagged, purified from E. coli) MDKPASRHFSVLIIDDEPQVTSELRELLENSGYRCVTSTHRESAIASFQADPNIGLVICDLYLGQDNGIRLIESLKEVAGNGRFFESIILTGHDGRQEVIEAMRVGAADYYQKPVAPQELLHGLERLESRLHERVRSQLSLSHVNQRLEYLAESLNSIYRDIHKIKYEVHGNSQPSALRSEDSQPSAPPAPVAESQVSPSNPLFGKLSPRQQAVARLVSKGLTNYQIAYELGITENTVKLYVSQVLRLMHMHNRTQLALALSPAAMQQGSGAVVH		effect of overexpression on the MIC change of PAK1-3 (PAK1-3 cells): much more dramatic; phosphorylation of PprB when PprA was mixed with PprB (PprA / PprB [2]): highly phosphorylated
PprA: putative histidine kinase homolog (PA4293) encoded by pprA, SEQ ID NO:3; His-tagged, purified from E. coli (protein, listed as Pseudomonas aeruginosa, His tag, His-tagged, purified from E. coli) MFEFSRSSSAEAERPEPFSQEGPALWSASLRSWDLCFEMDEQDRVIRVGGRQAYRLQCAHGLGEQPRPFAEYLERRAPGAPTLAGLRRGERLDLTLRSDAAAPLTCRFQPMQPLDGLGRSLLLGMDISDLNWQSDSQQHQLQSLSLGKLILSRLRHVSHGHLAEAVQEILESLSGAFQMQAIALLLGDGKGFCTVFASHVRPGSDSLLRPPLQLADDDLREGAGARLLRRGEGASTLLRQIGEDALYLVPATMRGGRLGALLVRPMSLEQLAQGPAPQDWQYLAELLANQVADRCELHEQHDSSRKLGLLQEMIGGGWWRYWAEQELFELAPALHDSLGLTGEYRRVPLEHLQGLLQPADADELGLRLRASLRSGQALAQDLCLRQPDSRGERRWLRIEGRPLGRGSALGLSGVLLDISEGRRQEERAQAAHARLRSLIDSAPVVIYVQRVEQGHLVPEFYSESASNLLGLDLQGQSWQALAERVHPDDLEAFFARGRELLREGRVKTRYRLADGQGNWHWLYDEAKLLRDAQGLPSEAVGLWLDVTEQHLAAQRIAESEERYRVLVEDSPALICRYTADLVLTYVNRTFADSLATSPERLVGRRLDEWLAAEDASALRARLLGSPREGASEVPELRFNLPGQRFLWLVWAERPLFDARGELCEVQAVGRDNTPVRRAQQQLAQGAKMASLGEMVSGLAHEVKQPLHVLRMTLFNMRQRMNSVGLDGDYLGEKLERMDAQVLRVDRLVSHLGVFSRKSALEALPFDPYAAFEGALGLLGEGLRQHAIEVECPAPTQRMVVRGQADQLEQVIINLLANARDALLGNPGLASRRVRLEQVACREPGWVELHVHDNGGGIEPLLLERIFEPFFTTKAEGKGTGLGLSVSHDLVRNMGGSLTAANQGEGALFVVRLPLAAPAEAGG		phosphorylation of the purified protein alone (PprA / PprB [3]): phosphorylated
